According to patent publication US10772886B2, “CXCR-2 inhibitors for treating crystal arthropathy disorders” (ARDEA BIOSCIENCES, INC., priority 2016, dated 2020):

Key:
[1] = tested on: rat air pouch model of crystal-induced arthropathy (MSU); assay: Rat air pouch model, Example 8 (Compound 3 in combination with colchicine); assay type: in vivo
Procedure: (§1) Sodium hydroxide (40 g, Fisher Scientific) was dissolved in de-ionized water (100 mL, dH2O) to provide a 10N solution. Uric acid (16 g, Sigma) was added to de-ionized water (3400 mL) containing sodium hydroxide solution (11.8 mL, 10N) and heated to 60° C. with constant stirring. […] The resulting clear solution was cooled to 4-8° C., resulting in the formation of crystals, which were isolated by filtration, washed three times with de-ionized wa[…]) and dried at 37° C. The dried mono sodium urate crystals were sifted into an air-tight container for storage. […] Methylcellulose (0.4 g, Sigma) was dissolved in de-ionized water (100 mL) to provide a 0.4% solution used as vehicle. […] Test compounds were suspended in vehicle to provide the desired concentrations, and diluted accordingly. […] Male Sprague-Dawley rats (Charles River Laboratories, 160-180 g) were received, individually examined and housed in cages of five rats each. The animals were in apparent good health with no clinical signs of disease or distress. The rats were placed in quarantine with daily inspections, ear notched for identification purposes and shaved at the nape of the neck. The rats were anesthetized (isoflurane), and the nape of the neck was cleansed with 70% isopropanol (Butler Animal Health Supply) followed by povidone-iodine solution (Ricca Chemical Co.). Sterile air (30 mL, 0.2 μm, Millipore) was injected subcutaneously using a 23 G×11⁄2 inch needle fixed to a 30 mL syringe. The rats were returned to routine housing with no adverse reactions observed. The rats were anesthetized (isoflurane), and the nape of the neck was cleansed with 70% isopropanol (Butler Animal Health Supply) followed by povidone-iodine solution (Ricca Chemical Co.). Sterile air (15 mL, 0.11 μm, Millipore) was injected subcutaneously using a 23 G×11⁄2 inch needle fixed to a 20 mL syringe. The rats were returned to routine housing with no adverse reactions observed. The rats were weighed and sorted into treatment groups based on average body weight. As appropriate, the rats were dosed orally with test compound or vehicle (saline alone). […] Thirty minutes after SC injection or two hours after PO dosing, MSU (15 mL) was injected into the air pouch using an 18 G×2 inch needle fitted to a 20 mL syringe. Control group was injected with 15 mL sterile saline (vehicle). The injection sites were closed (collodion, Macron) and the rats returned to their cages with no adverse effects observed. Four hours after MSU/saline injection, the rats were anesthetized and heparinized saline (5 mL, 10 U/mL) was injected into the air pouch. […] An aliquot of the exudate was transferred to green Eppendorf tubes for total white blood cell (WBC) measurement. After allowing the MSU crystals to settle out for ten minutes, an aliquot of the exudate was transferred to heparinized microtainer tubes (Becton Dickinson) for differential white blood cell counts. The remainder of the exudate was centrifuged and an aliquot of the supernatants was dispensed to labeled clear Eppendorf tubes and stored at -80° C. The rats were exsanguinated into pre-chilled serum separator tubes, processed to serum, and 0.5 mL aliquot was stored at -80° C. in labeled Eppendorf tubes. […] [table]

[2] = tested on: rat air pouch model of crystal-induced arthropathy (MSU); assay: Rat air pouch model of crystal-induced arthropathy, Example 4 (Compound 2); assay type: in vivo
Procedure: as §1, with “Sterile air (30 mL, 0.2 μm, Millipore) was injected subcutaneously using a 23 G×11⁄2 inch needle fixed to a 30 mL syringe.” left out, “Sterile air (15 mL, 0.11 μm, Millipore) was injected subcutaneously using a 23 G×11⁄2 inch needle fixed to a 20 mL syringe.” left out

[3] = 10.0 umol/kg PO + Colchicine 0.3 mpk SC, Group 10

C[C@@H](Oc1cc(NS(=O)(=O)N2CCC2)nc(SCc2cccc(F)c2F)n1)[C@@H](O)CO [Compound 3, N-(2-((2,3-difluorobenzyl)thio)-6-(((2R,3S)-3,4-dihydroxybutan-2-yl)oxy)pyrimidin-4-yl)azetidine-1-sulfonamide]
Avg Exudate Vol [1, 3]: 9.46 mL
Avg Total WBC [1, 3]: 69.1 ×10^6
Neutrophils [1, 3]: 53.1 ×10^6
Avg Exudate Vol ([1]; 10.0 umol/kg PO, Group 6): 10.93 mL
Avg Total WBC ([1]; 10.0 umol/kg PO, Group 6): 118 ×10^6
Neutrophils ([1]; 10.0 umol/kg PO, Group 6): 83.3 ×10^6
Avg Exudate Vol ([1]; 30.0 umol/kg PO, Group 7): 8.42 mL
Avg Total WBC ([1]; 30.0 umol/kg PO, Group 7): 70.5 ×10^6
Neutrophils ([1]; 30.0 umol/kg PO, Group 7): 40.3 ×10^6
Avg Exudate Vol ([1]; 100 umol/kg PO, Group 8): 6.56 mL
Avg Total WBC ([1]; 100 umol/kg PO, Group 8): 56.1 ×10^6
Neutrophils ([1]; 100 umol/kg PO, Group 8): 25.2 ×10^6
Avg Exudate Vol ([1]; 300 umol/kg PO, Group 9): 5.7 mL
Avg Total WBC ([1]; 300 umol/kg PO, Group 9): 24.7 ×10^6
Neutrophils ([1]; 300 umol/kg PO, Group 9): 5.3 ×10^6

COc1cc2c(c(OC)c1OC)-c1ccc(OC)c(=O)cc1[C@@H](NC(C)=O)CC2 [Colchicine, COLCHICINE, reference compound]
Avg Exudate Vol ([2]; 1 mg/kg SC, Group 3): ***6.4 mL
Avg Total WBC ([2]; 1 mg/kg SC, Group 3): **17.6 ×10^6
Neutrophils ([2]; 1 mg/kg SC, Group 3): **11.0 ×10^6
Avg Exudate Vol ([1]; 0.3 mpk SC, Group 3): 11.88 mL
Avg Total WBC ([1]; 0.3 mpk SC, Group 3): 170 ×10^6
Neutrophils ([1]; 0.3 mpk SC, Group 3): 121.8 ×10^6
Avg Exudate Vol ([1]; 0.5 mpk SC, Group 4): 7.62 mL
Avg Total WBC ([1]; 0.5 mpk SC, Group 4): 96.3 ×10^6
Neutrophils ([1]; 0.5 mpk SC, Group 4): 64.6 ×10^6
Avg Exudate Vol ([1]; 1.0 mpk SC, Group 5): 6.8 mL
Avg Total WBC ([1]; 1.0 mpk SC, Group 5): 41.5 ×10^6
Neutrophils ([1]; 1.0 mpk SC, Group 5): 7.6 ×10^6

CC[C@@H](Nc1c(Nc2cccc(C(=O)N(C)C)c2O)c(=O)c1=O)c1ccc(C)o1 [Compound 2, (R)-2-hydroxy-N,N-dimethyl-3-((2-((1-(5-methylfuran-2-yl)propyl)amino)-3,4-dioxocyclobut-1-en-1-yl)amino)benzamide]
Avg Exudate Vol ([2]; 0.3 mg/kg PO, Group 4): 10.1 mL
Avg Total WBC ([2]; 0.3 mg/kg PO, Group 4): 145.2 ×10^6
Neutrophils ([2]; 0.3 mg/kg PO, Group 4): 114.2 ×10^6
Avg Exudate Vol ([2]; 3 mg/kg PO, Group 5): 9.3 mL
Avg Total WBC ([2]; 3 mg/kg PO, Group 5): *33.4 ×10^6
Neutrophils ([2]; 3 mg/kg PO, Group 5): *19.8 ×10^6
Avg Exudate Vol ([2]; 30 mg/kg PO, Group 6): ***6.8 mL
Avg Total WBC ([2]; 30 mg/kg PO, Group 6): *51.7 ×10^6
Neutrophils ([2]; 30 mg/kg PO, Group 6): **16.0 ×10^6
